For test [1], the system named is Schgr-CCAPR-2. The test is described as follows: CRE(6x)-luc reporter assay, HEK-293T cells. As to conditions: CRE-controlled luciferase, three independent experiments, in triplicate. The test is classed as cell-based, Schistocerca gregaria. The source says: (§1) To deorphanize the three GPCRs, they were heterologously expressed in Chinese hamster ovary (CHO)-WTA11 cells, which stably express aequorin and a promiscuous Gα16 subunit. […] Intracellular signaling of Schgr-CCAPR-1, -2 and -3 was investigated in Schgr-CCAPR-expressing cells lacking the promiscuous Gα16 subunit (CHO-PAM28 cells) or co-expressing a cyclic AMP (cAMP) response element (CRE)-luciferase reporter (human embryonic kidney (HEK) 293T). In Schgr-CCAPR expressing CHO-PAM28 cells, Schgr-CCAP induced dose-dependent aequorin-based bioluminescent responses, with EC50 values in the subnanomolar range: 0.7 nM, 0.2 nM and 0.5 nM for Schgr-CCAPR-1, -2 and -3, respectively (Figure S4A).
(§2) Aequorin and CRE(6x)-luc reporter assays, as well as maintenance of the cell cultures and cell transfections, were carried out as previously described. […] Minimum bioluminescence values correlate with the signal obtained in the blank condition (without exposure to S. gregaria peptides). Calculations were performed using the output file from the Microwin software (Berthold Technologies, Bad Wildbad, Germany) in Excel (Microsoft). Half-maximal effective concentrations (EC50) were determined with the PRISM software (Graphpad version 6.03) using non-linear regression, log(agonist) vs. normalized response, applied to a sigmoidal dose-response model. […]
(§3) S c h g r-C C A P R -1 E C5 0 = 0 ,7 n M
(§4) S c hg r-C C A P R -2 E C5 0 = 0 ,2 n M
(§5) S c h g r-C C A P R -3 E C5 0 = 0 ,5 n M
(§6) S c h g r-C C A P R -1 E C5 0 = 0 ,0 1 n M
(§7) S c hg r-C C A P R -2 E C5 0 = 1 ,2 n M
(§8) S c hg r-C C A P R -3 E C5 0 = 0 ,0 5 n M
(§9) Dose-response curves induced by CCAP for cell -based receptor activity assays A) in CHO-PAM28-Schgr -CCAPR-1, -2 or -3 cells and B) in HEK293T Schgr -CCAPR-1, -2 or -3 cells, co - transfected with CRE(6x)-Luc construct. These cell-based receptor activity data were obtained from three independent experiments. The bioluminescence was measured in triplicate per concentration of Schgr -CCAP and per transfection. Error bars represent the S.E.M and the 100 % level refers to the maximal response level. […]

Test [2] relates to Schgr-CCAPR-3. The test is described as follows: CRE(6x)-luc reporter assay, HEK-293T cells. The test is classed as cell-based, Schistocerca gregaria. As to conditions: CRE-controlled luciferase, three independent experiments, in triplicate.
Description: as §1, §2, §3, §4, §5, §6, §7, §8, §9
On the technique in general: In a reporter assay the amount or activity of a reporter protein is the signal.

Test [3] has as its system Schgr-CCAPR-1. The test is described as follows: CRE(6x)-luc reporter assay, HEK-293T cells. The test is classed as cell-based, Schistocerca gregaria. As to conditions: CRE-controlled luciferase, three independent experiments, in triplicate.
Description: as §1, §2, §3, §4, §5, §6, §7, §8, §9

The subject of test [4] is Schgr-CCAPR-2. The experiment in a line: aequorin bioluminescence assay, CHO-WTA11 cells. It counts as cell-based, Schistocerca gregaria.
Description: as §1
(§10) Figure 2 Aequorin-based bioluminescent responses in cell-based receptor activity assays. (A) Dose-response curves induced by CCAP in CHO-WTA11-Schgr-CCAPR-1, -2 or -3 cells. The EC50 values are indicated. (B) Results for aequorin-based bioluminescent response induced in CHO-WTA11-Schgr-CCAPR-1, -2 and -3 cells upon addition of 1 µM of peptide. These cell-based receptor activity data were obtained from three independent experiments. The cell-based assays were executed in three independent transfections. Error bars in dose-response curves represent the S.E.M and the 100% level refers to the maximal response level. Agonist selectivity was normalized to bioluminescent response acquired by exposure to CCAP. The zero-response level corresponds to treatment with BSA medium only. Abbreviations: Schgr = Schistocerca gregaria, CCAP = crustacean cardioactive peptide, CCAPR = CCAP receptor, CCHa = CCHamide, ASTC = allostatin C, ASTCCC = allostatin CCC, Crz = corazonin, AKH I(I) = adipokinetic hormone I(I), INT = inotocin.
(§11) Aequorin and CRE(6x)-luc reporter assays, as well as maintenance of the cell cultures and cell transfections, were carried out as previously described. […] Minimum bioluminescence values correlate with the signal obtained in the blank condition (without exposure to S. gregaria peptides). Calculations were performed using the output file from the Microwin software (Berthold Technologies, Bad Wildbad, Germany) in Excel (Microsoft). Half-maximal effective concentrations (EC50) were determined with the PRISM software (Graphpad version 6.03) using non-linear regression, log(agonist) vs. normalized response, applied to a sigmoidal dose-response model.

For test [5], the system named is Schgr-CCAPR-3. The experiment in a line: aequorin bioluminescence assay, CHO-WTA11 cells. It counts as cell-based, Schistocerca gregaria.
Description: as §1, §10, §11

Test [6] deals with Schgr-CCAPR-1. The experiment in a line: aequorin bioluminescence assay, CHO-WTA11 cells. It counts as cell-based, Schistocerca gregaria.
Description: as §1, §10, §11

For the next test, the system named is locust oviducts. As to conditions: Ca^2+-dependent, ref [32]; cited from earlier work. The text has this:
The three Schgr-CCAPRs show high sequence similarity to deorphanized CCAP receptors of D. melanogaster, T. castaneum and R. prolixus. Although only one CCAP receptor has been identified in many insect species, there are other species, such as S. gregaria, which have multiple isoforms. […] This is a commonly occurring feature during evolution of GPCR genes in both vertebrates and invertebrates. To supp ...

Test [7] concerns heartbeat and skeletal muscles. Set-up: method as in PMID 9151755, PMID 18835439, PMID 16968777. The following applies: released into hemolymph during ecdysis; ref [14],[15],[33]; cited from earlier work.
Test [8] deals with Schgr-CCAPR-2. The test is described as follows: aequorin bioluminescence assay, CHO-PAM28 cells. It counts as cell-based, Schistocerca gregaria. As to conditions: CHO-PAM28 cells lacking Gα16, aequorin; three independent experiments, in triplicate.
Description: as §1, §2, §3, §4, §5, §6, §7, §8, §9

For test [9], the system named is Schgr-CCAPR-3. The experiment in a line: aequorin bioluminescence assay, CHO-PAM28 cells. The test is classed as cell-based, Schistocerca gregaria. As to conditions: CHO-PAM28 cells lacking Gα16, aequorin; three independent experiments, in triplicate.
Description: as §1, §2, §3, §4, §5, §6, §7, §8, §9

The subject of test [10] is Schgr-CCAPR-1. The experiment in a line: aequorin bioluminescence assay, CHO-PAM28 cells. The test is classed as cell-based, Schistocerca gregaria. The following applies: CHO-PAM28 cells lacking Gα16, aequorin; three independent experiments, in triplicate.
Description: as §1, §2, §3, §4, §5, §6, §7, §8, §9

Test [11] concerns Schgr-CCAPpre depleted nymphs. The test is described as follows: rescue of Schgr-CCAPpre depleted nymphs by CCAP injection. The test is classed as in vivo, Schistocerca gregaria. As to conditions: daily 0.92 pg CCAP in 4 µL saline throughout N5; 18/30; vs saline; p < 0.05, Fisher's exact test. On the procedure:
Figure 4 Phenotypic effect of Schgr-CCAPpre or Schgr-CCAPR-1, -2 and/or -3 depletion on ecdysis. (A) Percentage of nymphs displaying ecdysis arrest at nymphal-adult (N5-Ad) molt (n = 25, per construct). Nymphs were injected at N4D0, N4D4, N5D1, N5D4 and N5D7 with 400 ng of dsGFP (control), dsCCAPpre, dsCCAPR1/2/3a, dsCCAPR1/2/3b, dsCCAPR-1, dsCCAPR-2 or dsCCAPR-3. (B) Percentage of nymphs displaying ecdysis arrest at nymphal-nymphal (N4–N5) and N5-Ad molts (n = 25, per construct). Nymphs were injected in late N3, N4D1 and N4D4 with 400 ng of dsGFP (control), dsCCAPpre or dsCCAPR1/2/3a. (C) The timing of ecdysis initiation in dsGFP (control), dsCCAPpre (Schgr-CCAPpre knockdown) and dsCCAPR1/2/3a (Schgr-CCAPRs knockdown) injected nymphs, as observed starting from freshly molted fifth instar nymphs. A log-rank (Mantel-Cox) test was used to check for significant differences in ecdysis initiation between populations. (D) Rescue of Schgr-CCAPpre depleted nymphs (n = 30) by additional daily injections of 0.92 pg CCAP in 4 µL S. gregaria saline in N5. In the control groups, nymphs received dsGFP injections or dsCCAPpre injections (n = 31), with additional daily injections of S. gregaria saline in N5. Significant differences (p < 0.05) are indicated by an asterisk (*) and calculated by the Fisher’s exact test. (E) Ecdysis deficient phenotype (top photos). […]

In test [12] the test system is prothoracic gland (PG) explants. The test is described as follows: ecdysteroid secretion by prothoracic gland explants. Set-up: species or system Schistocerca gregaria. As to conditions: 1 µM CCAP, 24 h, 50 µL Grace's insect medium, 30 °C, PG from N5IW nymphs, n = 16 vs n = 15, p < 0.001. As for the experimental part: Figure 6 Ecdysteroid secretion by prothoracic gland (PG) explants incubated for 24 h in a volume of 50 µL Grace’s insect medium (GI) with or without 1 µM CCAP. PGs were micro-dissected from fifth instar (N5) nymphs at N5IW (inter-wing distance of at least 1.8 mm; GI, n = 15; GI + 1 µM CCAP, n = 16) Each data point represents 20E-equivalents secreted by PG from a single nymph. Mean ± S.E.M. is also indicated per group. Significant difference (p < 0.001) is indicated by asterisks (***) and was calculated by an unpaired t-test with Welch’s correction. Used abbreviations: CCAP = crustacean cardioactive peptide and GI = Grace’s Insect Medium.
To correlate the locust’s morphology to the nymphal ecdysteroid titer that regulates molting, hemolymph was collected as well at the described sampling moments. 20 µL hemolymph from each N5 animal was collected into 280 µL cold ethanol. Each sample was further processed as previously described. The ecdysteroid titers were subsequently quantified using the 20-Hydroxyecdysone ELISA kit (Bertin Technologies, Montigny-le-Bretonneux, France), according to the manufacturer’s protocol.
PGs of N5IW nymphs were micro-dissected in S. gregaria saline solution and incubated in 50 µL Grace’s Insect medium (GI) (Invitrogen, Waltham, MA, USA) containing 1 µM CCAP or in GI without peptide. […]

The subject of another test is 20E levels. As to conditions: daily injection, adult American cockroach; ref [35]; cited from earlier work. On the procedure:
High relative transcript levels of the Schgr-CCAPRs were determined in the PG at N5WD. […] From these observations we conclude that CCAP acts directly on the prothoracic gland as a prothoracicostatic factor. In contrast to the ecdysiostatic activity of CCAP in S. gregaria nymphs, dai ...

[13] abbreviates: 1 µM peptide, normalized to CCAP response.
The mark [14] stands for this setting: aequorin and promiscuous Gα16, three independent experiments.

These results are taken from PMC8704491, “Prothoracicostatic Activity of the Ecdysis-Regulating Neuropeptide Crustacean Cardioactive Peptide (CCAP) in the Desert Locust” (International Journal of Molecular Sciences, 2021).

A word on the EC50: it is the concentration needed to bring the measured effect to its halfway point. High values mean a need for much substance, low ones an effect from little substance.

Regarding crustacean cardioactive peptide [CCAP], the concentration for a half-maximal effect (EC50) was determined as 1.2 nM in the test on Schgr-CCAPR-2 [1]; 0.05 nM with Schgr-CCAPR-3 [2]; 0.01 nM in the test with Schgr-CCAPR-1 [3]; 0.32 nM in the test with Schgr-CCAPR-2 [4] (setting [14]); 0.59 nM in the test with Schgr-CCAPR-3 [5] (setting [14]); 3.65 nM in the test with Schgr-CCAPR-1 [6] (setting [14]). In addition, the results for the 50% effective concentration (EC50) in the test with Schgr-CCAPR-2 [8], in the test with Schgr-CCAPR-3 [9] and with Schgr-CCAPR-1 [10] were 0.2 nM, 0.5 nM and 0.7 nM, respectively. For the same substance, the “agonist selectivity, receptor activation” value in the test on Schgr-CCAPR-2 [4] (setting [13]), in the test with Schgr-CCAPR-3 [5] (setting [13]) and with Schgr-CCAPR-1 [6] (setting [13]) was “markedly activated” in each case. The oviduct contractions entry in the test on locust oviducts is “induces Ca^2+-dependent contractions”. For the same substance, the “heartbeat and contraction of skeletal muscles” value in test [7] is “stimulate heartbeat and contraction of skeletal muscles”. For the same substance, the “rescue effect of ecdysis deficiency phenotype” value in [11] was found to be 60%. Moreover, the “ecdysteroid secretion (prothoracicostatic activity)” value in [12] is “significant prothoracicostatic activity”; in test [12] (listed as Schgr-CCAP), “suppressed ecdysteroid secretion”. For the same substance, the 20E levels entry in the test on 20E levels is given as “elevated 20E levels”.
